According to ChEMBL document CHEMBL5500349, “Discovery of ganoderic acid A (GAA) PROTACs as MDM2 protein degraders for the treatment of breast cancer” (Eur J Med Chem, 2024):
The source made the active and inactive calls. The calls are words filed in the database; no cut-off is given here.

What was measured:
MDA-MB-231 [1] = assay: Induction of apoptosis in human MDA-MB-231 cells assessed as early apoptotic cells at 20 uM incubated for 48 hrs by Annexin-V FITC/PI staining based flow cytometry analysis (reference value: 3.37%); format: functional
[2] = target: T1, von Hippel-Lindau disease tumor suppressor/E3 ubiquitin-protein ligase Mdm2 (Homo sapiens, UniProt Q00987+P40337); assay: Protac activity at VHL/MDM2 in human MDA-MB-231 cells assessed as reduction in MDM2 protein level at 80 uM after 48 hrs by Western blotting analysis; format: cell-based; parameters: scale not given: the % may be the effect or the level left
MDA-MB-231 [3] = assay: Antitumor activity against human MDA-MB-231 cells xenografted in zebrafish assessed as inhibition rate at 12.5 ug/ml after 2 days by fluorescence microscopic method; format: functional; parameters: scale not given: the % may be the effect or the level left; settings: dose 12.5 µg/ml; time 2 day
MDA-MB-231 [4] = assay: Downregulation of MDM2 expression in human MDA-MB-231 cells at 20 to 80 uM incubated for 48 hrs by immunofluorescence analysis; format: functional, cell-based; settings: dose 20-80 µM
MDA-MB-231 [5] = assay: Inhibition of cell migration in human MDA-MB-231 cells at 80 uM incubated for 24 hrs by wound healing assay; format: functional, cell-based
MCF7 = assay: Antiproliferative activity against human MCF7 cells assessed as cell viability at 100 uM incubated for 48 to 72 hrs by MTT assay; format: functional; settings: time 48-72 hrs, read-out: Activity
MDA-MB-231 [6] = assay: Induction of apoptosis in human MDA-MB-231 cells assessed as necrotic cells at 40 uM incubated for 48 hrs by Annexin-V FITC/PI staining based flow cytometry analysis (reference value: 0.26%); format: functional
MDA-MB-231 [7] = assay: Antitumor activity against human MDA-MB-231 cells xenografted in zebrafish assessed as inhibition rate at 50 ug/ml after 2 days by fluorescence microscopic method; format: functional; parameters: scale not given: the % may be the effect or the level left; settings: dose 50 µg/ml; time 2 day
MDA-MB-231 [8] = assay: Induction of apoptosis in human MDA-MB-231 cells assessed as early apoptotic cells at 80 uM incubated for 48 hrs by Annexin-V FITC/PI staining based flow cytometry analysis (reference value: 3.37%); format: functional
HepG2 = assay: Antiproliferative activity against human HepG2 cells assessed as cell viability at 100 uM incubated for 48 to 72 hrs by MTT assay; format: functional; settings: time 48-72 hrs, read-out: Activity
SJSA-1 = assay: Antiproliferative activity against human SJSA-1 cells assessed as cell viability at 100 uM incubated for 48 to 72 hrs by MTT assay; format: functional; settings: time 48-72 hrs, read-out: Activity
[9] = Toxicity in zebrafish assessed as appearance of toxic phenotype at < 50 ug/ml; parameters: species or system Danio rerio; settings: in vivo, dose < 50 µg/ml
MDA-MB-231 [10] = assay: Upregulation of p21 expression in human MDA-MB-231 cells at 20 to 80 uM incubated for 48 hrs by immunofluorescence analysis; format: functional, cell-based; settings: dose 20-80 µM
[11] = target: T1, von Hippel-Lindau disease tumor suppressor/E3 ubiquitin-protein ligase Mdm2; assay: Protac activity at VHL/MDM2 in human MDA-MB-231 cells assessed as reduction in MDM2 protein level after 48 hrs by Western blotting analysis; format: cell-based; settings: dose 20-80 µM
MDA-MB-231 [12] = assay: Induction of cell cycle arrest in human MDA-MB-231 cells assessed as increase in number of G1 phase cells at 80 uM after 48 hrs by PI/RNase staining based flow cytometry analysis; format: functional
MDA-MB-231 [13] = assay: Induction of apoptosis in human MDA-MB-231 cells assessed as late apoptotic cells at 80 uM incubated for 48 hrs by Annexin-V FITC/PI staining based flow cytometry analysis (reference value: 6.04%); format: functional
MDA-MB-231 [14] = assay: Induction of cell cycle arrest in human MDA-MB-231 cells assessed as decrease in number of S phase cells at 80 uM after 48 hrs by PI/RNase staining based flow cytometry analysis; format: functional
MDA-MB-231 [15] = assay: Induction of apoptosis in human MDA-MB-231 cells assessed as viable cells at 40 uM incubated for 48 hrs by Annexin-V FITC/PI staining based flow cytometry analysis (reference value: 90.3%); format: functional; settings: read-out: Activity
MDA-MB-231 [16] = assay: Induction of apoptosis in human MDA-MB-231 cells assessed as reduction in bcl-2/bax ratio at 20 to 40 uM by Western blotting analysis; format: functional, cell-based; settings: dose 20-40 µM
[17] = target: T1, von Hippel-Lindau disease tumor suppressor/E3 ubiquitin-protein ligase Mdm2; assay: Protac activity at VHL/MDM2 in human MDA-MB-231 cells assessed as reduction in MDM2 protein level at 80 uM pretreated with MG-132 for 2 hrs followed by compound addition and measured after 48 hrs by Western blotting analysis; format: cell-based
MDA-MB-231 [18] = assay: Induction of apoptosis in human MDA-MB-231 cells assessed as necrotic cells at 80 uM incubated for 48 hrs by Annexin-V FITC/PI staining based flow cytometry analysis (reference value: 0.26%); format: functional
MDA-MB-231 [19] = assay: Inhibition of cell migration in human MDA-MB-231 cells at 80 uM incubated for 48 hrs by wound healing assay; format: functional, cell-based
MDA-MB-231 [20] = assay: Induction of apoptosis in human MDA-MB-231 cells assessed as viable cells at 80 uM incubated for 48 hrs by Annexin-V FITC/PI staining based flow cytometry analysis (reference value: 90.3%); format: functional; settings: read-out: Activity
[21] = Toxicity in zebrafish assessed as mortality rate at 6.25 ug/ml; parameters: species or system Danio rerio; settings: in vivo, at 6.25 µg/mL, read-out: Activity
MDA-MB-231 [22] = assay: Induction of G2/M phase arrest in human MDA-MB-231 cells assessed as decrease in cyclin B1 protein expression at 20 to 80 uM by Western blotting analysis; format: functional, cell-based; settings: dose 20-80 µM
[23] = Toxicity in zebrafish assessed as mortality rate at 12.5 ug/ml; parameters: species or system Danio rerio; settings: in vivo, at 12.5 µg/mL, read-out: Activity
[24] = Toxicity in zebrafish assessed as mortality rate at 25 ug/ml; parameters: species or system Danio rerio; settings: in vivo, at 25 µg/mL, read-out: Activity
[25] = Toxicity in zebrafish assessed as mortality rate at 50 ug/ml; parameters: species or system Danio rerio; settings: in vivo, at 50 µg/mL, read-out: Activity
MDA-MB-231 [26] = assay: Induction of apoptosis in human MDA-MB-231 cells assessed as late apoptotic cells at 20 uM incubated for 48 hrs by Annexin-V FITC/PI staining based flow cytometry analysis (reference value: 6.04%); format: functional
[27] = Toxicity in zebrafish assessed as mortality rate at 100 ug/ml; parameters: species or system Danio rerio; settings: in vivo, at 100 µg/mL, read-out: Activity
[28] = Cytotoxicity against mouse HT-22 cells assessed as cell viability at 100 uM incubated for 48 to 72 hrs by MTT assay; format: toxicity, cell-based; settings: time 48-72 hrs, read-out: Activity
[29] = target: T2, E3 ubiquitin-protein ligase Mdm2 (Homo sapiens, UniProt Q00987); assay: Binding affinity to MDM2 (unknown origin) by SPR assay
Target sequence in this assay (Q00987 whole entry): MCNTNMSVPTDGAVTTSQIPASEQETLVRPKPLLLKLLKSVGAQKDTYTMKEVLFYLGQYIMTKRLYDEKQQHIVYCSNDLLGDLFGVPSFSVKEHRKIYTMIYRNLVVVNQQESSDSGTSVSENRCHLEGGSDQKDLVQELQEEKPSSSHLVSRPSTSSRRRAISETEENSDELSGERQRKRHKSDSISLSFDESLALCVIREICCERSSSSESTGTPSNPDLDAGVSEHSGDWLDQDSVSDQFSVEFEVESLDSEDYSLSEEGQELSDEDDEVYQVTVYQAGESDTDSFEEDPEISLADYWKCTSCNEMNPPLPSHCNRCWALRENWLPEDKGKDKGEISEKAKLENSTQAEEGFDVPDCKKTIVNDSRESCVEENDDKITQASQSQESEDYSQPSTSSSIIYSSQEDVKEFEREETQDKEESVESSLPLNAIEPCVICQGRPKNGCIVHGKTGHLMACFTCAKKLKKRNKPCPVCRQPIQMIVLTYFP

[30] = Toxicity in zebrafish assessed as minimum toxic concentration measured after 2 days; parameters: species or system Danio rerio; settings: in vivo, 48 h, time 2 day
MDA-MB-231 [31] = assay: Antitumor activity against human MDA-MB-231 cells xenografted in zebrafish assessed as inhibition rate at 25 ug/ml after 2 days by fluorescence microscopic method; format: functional; parameters: scale not given: the % may be the effect or the level left; settings: dose 25 µg/ml; time 2 day
MDA-MB-231 [32] = assay: Induction of G1/S phase arrest in human MDA-MB-231 cells assessed as increase in p21 mRNA expression at 20 to 80 uM by qRT-PCR analysis; format: functional, cell-based; settings: dose 20-80 µM
[33] = Toxicity in zebrafish assessed as death at < 50 ug/ml; parameters: species or system Danio rerio; settings: in vivo, dose < 50 µg/ml
MDA-MB-231 [34] = assay: Induction of apoptosis in human MDA-MB-231 cells assessed as necrotic cells at 20 uM incubated for 48 hrs by Annexin-V FITC/PI staining based flow cytometry analysis (reference value: 0.26%); format: functional
MDA-MB-231 [35] = assay: Induction of apoptosis in human MDA-MB-231 cells assessed as viable cells at 20 uM incubated for 48 hrs by Annexin-V FITC/PI staining based flow cytometry analysis (reference value: 90.3%); format: functional; settings: read-out: Activity
[36] = target: T2, E3 ubiquitin-protein ligase Mdm2; assay: Binding affinity to MDM2 (unknown origin) assessed as increase in protein stability incubated for 30 mins by CETSA
Target sequence in this assay (Q00987 whole entry, looked up): as the sequence (Q00987 whole entry) above

[37] = target: T1, von Hippel-Lindau disease tumor suppressor/E3 ubiquitin-protein ligase Mdm2; assay: Protac activity at VHL/MDM2 in human MDA-MB-231 cells assessed as upregulation of p21 level at 20 to 80 uM after 48 hrs by Western blotting analysis; format: cell-based; settings: dose 20-80 µM
MDA-MB-231 [38] = assay: Induction of cell cycle arrest in human MDA-MB-231 cells assessed as increase in number of G2 phase cells at 80 uM after 48 hrs by PI/RNase staining based flow cytometry analysis; format: functional
MDA-MB-231 [39] = assay: Antiproliferative activity against human MDA-MB-231 cells assessed as cell viability at 100 uM incubated for 48 to 72 hrs by MTT assay; format: functional; settings: time 48-72 hrs, read-out: Activity
MDA-MB-231 [40] = assay: Induction of apoptosis in human MDA-MB-231 cells assessed as late apoptotic cells at 40 uM incubated for 48 hrs by Annexin-V FITC/PI staining based flow cytometry analysis (reference value: 6.04%); format: functional
MDA-MB-231 [41] = assay: Induction of apoptosis in human MDA-MB-231 cells assessed as early apoptotic cells at 40 uM incubated for 48 hrs by Annexin-V FITC/PI staining based flow cytometry analysis (reference value: 3.37%); format: functional

T1 sequence (P40337 whole entry, looked up): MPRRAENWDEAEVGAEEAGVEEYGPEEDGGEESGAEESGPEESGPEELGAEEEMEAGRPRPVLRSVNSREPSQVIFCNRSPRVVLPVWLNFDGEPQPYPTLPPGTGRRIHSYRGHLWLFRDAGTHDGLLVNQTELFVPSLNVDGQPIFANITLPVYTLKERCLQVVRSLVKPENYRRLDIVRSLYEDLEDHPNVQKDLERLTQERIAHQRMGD
T1 sequence (Q00987 whole entry, looked up): as the sequence (Q00987 whole entry) above

Cc1ncsc1-c1ccc([C@H](C)NC(=O)[C@@H]2C[C@@H](O)CN2C(=O)[C@@H](NC(=O)CCCCc2cn(CCOCCOCCOCCOCCNC(=O)[C@H](C)CC(=O)C[C@@H](C)[C@H]3C[C@H](O)[C@@]4(C)C5=C(C(=O)C[C@]34C)[C@@]3(C)CCC(=O)C(C)(C)[C@@H]3C[C@@H]5O)nn2)C(C)(C)C)cc1
Activity (MDA-MB-231 [1]): 4.38%
Activity [2]: 51%
Activity (MDA-MB-231 [3]): 16.8%
Activity (MDA-MB-231 [4]): Active
inhibition (MDA-MB-231 [5]): Active
viability at 100 µM (MCF7): 30.6%
Activity (MDA-MB-231 [6]): 0.13%
Activity (MDA-MB-231 [7]): 27.2%
Activity (MDA-MB-231 [8]): 47.4%
viability at 100 µM (HepG2): 92.9%
viability at 100 µM (SJSA-1): 61.3%
Activity [9]: Non-Toxic
Activity (MDA-MB-231 [10]): Active
Activity [11]: Dose-Dependent Effect
Activity (MDA-MB-231 [12]): Active
Activity (MDA-MB-231 [13]): 10.4%
Activity (MDA-MB-231 [14]): Active
viability at 40 µM (MDA-MB-231 [15]): 82.3%
Activity (MDA-MB-231 [16]): Active
Activity [17]: inactive
Activity (MDA-MB-231 [18]): 0.82%
inhibition (MDA-MB-231 [19]): Active
viability at 80 µM (MDA-MB-231 [20]): 41.4%
mortality at 6.25 ug/ml [21]: 0%
Activity (MDA-MB-231 [22]): Active
mortality at 12.5 ug/ml [23]: 0%
mortality at 25 ug/ml [24]: 0%
mortality at 50 ug/ml [25]: 0%
Activity (MDA-MB-231 [26]): 5.34%
mortality at 100 ug/ml [27]: 13%
viability at 100 µM [28]: 91.3%
Kd [29]: 38.2 µM
MTC [30]: 50 µg/mL
Activity (MDA-MB-231 [31]): 23.4%
Activity (MDA-MB-231 [32]): Active
Activity [33]: Non-Toxic
Activity (MDA-MB-231 [34]): 0.21%
viability at 20 µM (MDA-MB-231 [35]): 90.1%
Activity [36]: Active
Activity [37]: Active
Activity (MDA-MB-231 [38]): Active
viability at 100 µM (MDA-MB-231 [39]): 16.9%
Activity (MDA-MB-231 [40]): 10.4%
Activity (MDA-MB-231 [41]): 7.17%
